The values below come from US20180016554A1, “HUMAN SERUM ALBUMIN-CONTAINING CULTURE MEDIUM FOR GROWTH OF NEURAL STEM CELLS” (AJINOMOTO CO., INC., priority 2015, published 2018).

In this test the test system is neurosphere (neural stem cells and/or neural progenitor cells induced from human pluripotent stem cells). Nature of the test: Functional evaluation of fatty acid (oleic acid) added to human serum albumin-added medium: neurosphere morphology. The format is cell-based. The note with it: 14 days' culturing. The procedure: Similar to Example 1, 2.1 mg/mL human serum albumin-added medium was produced. A medium was produced by adding oleic acid (Tokyo Chemical Industry Co., Ltd.) at a final concentration of 20 μM or 60 μM to this medium, and a medium without addition of oleic acid was produced, and neurospheres were cultured in these media. […] The medium was exchanged every 7 days and, after 14 days' culturing, the morphology of the neurosphere formed was observed under a microscope.

Entries after “also recorded” stand apart in the source; their conditions may differ.

For `CCCCCCCC/C=C\CCCCCCCC(=O)O` [oleic acid], the “morphology of the neurosphere formed” value is recorded as “showed a good neurosphere form” (20 μM oleic acid in 2.1 mg/mL human serum albumin-added medium) and “show a black sphere with an irregular shape; also recorded: Many black sphere images with an irregular shape were confirmed” (60 μM oleic acid in 2.1 mg/mL human serum albumin-added medium).
